From paper PMC6851324, “Design and development of stapled transmembrane peptides that disrupt the activity of G-protein–coupled receptor oligomers” (The Journal of Biological Chemistry, 2019)
Where a SMILES comes first, the peptide text is derived from it. Bridges are numbered along the chain shown (N, C = ends). Where no end group is shown, it is not given here. [ ]: non-standard residue; d: D form. S5 = C=CCCC[C@](C)(N)C(=O)O; Nle = CCCC[C@H](N)C(=O)O

Biological target: T1, 5-HT2AR–CB1R heteromers (Homo sapiens, UniProt P28223)
T1 construct: expressed in transfected cells; host or cells: HEK293 (ATCC CRL-1573), transient reverse transfection
Assay: NanoBiT BiLC peptide screening assay (LgBiT–CB1R + SmBiT–5-HT2AR)
Type: cell-based
Settings: HEK293 cells transiently expressing LgBiT–CB1R and SmBiT–5-HT2AR, preincubated 1 h with 4 μM peptide, luminescence normalized to vehicle, n ≥ 5
Experimental: Figure 5. Identification of a small-stapled TM peptide disrupting 5-HT2AR–CB1R heteromers. A, schematic representation of the NanoBiT assay using N-terminally labeled constructs. In B, HEK293 cells transiently expressing the LgBT–CB1R and SmBiT–5-HT2AR complementary pairs were preincubated for 1 h at 37 °C with the indicated peptides (4 μM) or vehicle prior to luminescence recording. Data are mean RLU ± S.E. (error bars) (n ≥ 5) percentage of luminescence normalized to vehicle-treated cells. Statistical significance was evaluated by one-way ANOVA followed by Bonferroni post hoc tests, indicating significant differences over vehicle-treated cells (***, p ≤ 0.001; ****, p ≤ 0.0001) and for peptide 10 over its related peptides (####, p ≤ 0.0001). Peptide 10 potency (C) was evaluated as in A over increasing peptide concentrations (bottom) (n = 3). Alternatively, to assess the kinetics of the peptide 10–driven heteromer disruption (D), prior to the administration of the peptide, the cells were preincubated with substrate, and the luminescence was recorded over the following 30 min. Data are mean RLU ± S.E. (n ≥ 3) percentage of luminescence normalized to vehicle-treated cells.
To assess GPCR protein–protein interactions with the NanoBiT technology, HEK293 cells (50,000 cells/well) were seeded in poly-D-lysine–coated white clear bottom 96-well plates and reverse-transfected (see above) with the plasmids encoding the complementary NanoBiT hemiprotein fragments. For orientation screenings, cells were transfected with two different concentrations (50 and 100 ng/well) of each receptor alone or in combination with the investigated partner (see figure legends) in the presence of empty vector (pcDNA3.1(+)) to normalize the total amount of DNA/well. For studies in the presence of increasing nontagged receptor competitors, 100 ng of each receptor pair (CB1R LgBiT + CB1R SmBiT, 5-HT2AR LgBiT + 5-HT2AR SmBiT, and 5-HT2AR LgBiT + CB1R SmBiT) were co-transfected with increasing concentrations of the different nontagged constructs (from 0 to 300 ng/well), and the total amounts of DNA/well were normalized with empty vector (pcDNA3.1(+)). For the screening of stapled peptides, 50 ng/well of both LgBiT CB1R and SmBiT 5-HT2AR were reverse-transfected as detailed previously. 24 h post- transfection, the cell culture medium was removed, and the cells were starved in FBS-free DMEM for 4 h at 37 °C in a 5% CO2 humidified atmosphere. The cell culture medium was replaced by 100 μl of NanoBiT assay buffer (same as for cAMP measurements), and the plates were pre-equilibrated for 1 h at RT in the dark. When peptide pretreatment was required, peptides were added over this pre-equilibration step, except when studying inhibition kinetics, when the peptides were administered immediately after the baseline luminescence recording. 25 μl/well of a 5× solution of the Nano-Glo® live cell reagent containing the cell-permeable furimazine substrate dissolved in Nano-Glo® LCS dilution buffer were added, and the luminescence was immediately monitored in CLARIOstar® Multimode Plate Reader (BMG Labtech) with no lens (1-s integration time/well for 1 h every minute).
Dose–response curves were fitted using a four-parameter logistic nonlinear regression mode. Peptide stability data were fitted using a nonlinear regression mode for dissociation kinetics. All statistical tests, curve fitting, and graphing were performed using GraphPad Prism 8 (GraphPad Software, La Jolla, CA).

T1 sequence (P28223 2-471, one chain of several): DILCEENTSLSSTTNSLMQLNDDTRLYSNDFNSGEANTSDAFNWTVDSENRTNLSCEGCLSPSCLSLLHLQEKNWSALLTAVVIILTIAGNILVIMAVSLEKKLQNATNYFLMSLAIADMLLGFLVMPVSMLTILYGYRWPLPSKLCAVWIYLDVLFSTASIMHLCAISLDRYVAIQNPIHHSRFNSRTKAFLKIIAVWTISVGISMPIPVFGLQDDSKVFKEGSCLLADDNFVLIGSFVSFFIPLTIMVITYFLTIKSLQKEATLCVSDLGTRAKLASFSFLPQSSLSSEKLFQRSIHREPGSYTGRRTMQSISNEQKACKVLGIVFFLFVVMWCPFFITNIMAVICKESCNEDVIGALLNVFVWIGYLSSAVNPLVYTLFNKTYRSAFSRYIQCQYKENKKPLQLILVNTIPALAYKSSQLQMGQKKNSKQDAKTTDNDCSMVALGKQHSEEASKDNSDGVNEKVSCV

Row | Compound | effect on NanoBiT luminescence (heteromer disruption)
1 | ETYLMFWIGVTSVLLLFIVYAYMYILWGRKKRRQRRR [TM5-TAT, reference compound] | decrease in the luminescence readout
2 | CCCC[C@H](NC(=O)[C@]1(C)CCC/C=C\CCC[C@](C)(NC(=O)[C@H](Cc2ccccc2)NC(=O)[C@H](CC(C)C)NC(=O)[C@H](CC(C)C)NC(=O)[C@H](CC(C)C)NC(=O)[C@@H](N)C(C)C)C(=O)N[C@@H](C(C)C)C(=O)N[C@@H](Cc2ccc(O)cc2)C(=O)N[C@@H](C)C(=O)N1)C(=O)N[C@@H](Cc1ccc(O)cc1)C(=O)N[C@H](C(=O)N[C@@H](CC(C)C)C(=O)N[C@@H](Cc1c[nH]c2ccccc12)C(N)=O)[C@@H](C)CC [Peptide 8] (H-VLLLF[S5]VYA[S5][Nle]YILW-NH2; staple (Z) 6-10) | not as efficient as compound 10
3 | GRKKRRQRRRKTLVLILVVLIICWGPLLAIMVY [TM6-TAT, reference compound] | decrease in the luminescence readout
4 | C=CCCC[C@](C)(NC(=O)[C@H](Cc1ccc(O)cc1)NC(=O)[C@@H](N)C(C)C)C(=O)N[C@@H](Cc1ccc(O)cc1)C(=O)N[C@@H](CCCC)C(=O)N[C@@](C)(CCCC=C)C(=O)N[C@H](C(=O)N[C@@H](CC(C)C)C(=O)N[C@@H](Cc1c[nH]c2ccccc12)C(N)=O)[C@@H](C)CC [Peptide 11] (H-VY[S5]Y[Nle][S5]ILW-NH2) | neither the version lacking the TAT amino acid sequence, compound 9, nor the nonstaple, compound 11, peptides induced any change
